From patent US11129845B2, “Compositions and methods for the delivery of nucleic acids” (CASE WESTERN RESERVE UNIVERSITY, priority 2014, dated 2021)

Assays:
[1] = Nanoparticle diameter and polydispersity by dynamic light scattering (Malvern Zetasizer); format: physicochemical; details: for Nanoparticle diameter as measured by dynamic light scattering: siRNA-lipid complexes
Description: (§1) The cationic lipid carriers are dissolved in ethanol at a stock concentration of 2.5 mM, while all siRNA is reconstituted in nuclease-free water at a 0.25 μg/μL (18.8 μM) concentration. Nanoparticles are formulated by mixing the carriers with siRNA for a period of 30 min in RNase-free phosphate buffer saline (PBS) at pre-specified N/P ratios (N=number of protonable amines in lipid, P=number of phosphate groups in the siRNA). In preparing the lipoplexes, proper dilutions were made such that the volume ratio of ethanol:water was kept constant at 1:20. Minimizing the amount of ethanol is important because it is effective in dissolving lipids, thus inhibiting particle formation. The diameters (as determined by dynamic light scattering) and zeta potentials of all nanoparticles were analyzed using a Malvern Zetasizer instrument at pH=7.4. siRNA encapsulation efficiency was calculated using a RiboGreen fluorescence-based assay from Invitrogen, designed specifically for detection of free RNA at […] wavelengths of 480 and 520 nm, respectively. Nanoparticles were created with all carriers in the library so that final siRNA concentrations were 1.6 μg/mL. A linear standard curve was utilized to calculate the encapsulation efficiencies from signal intensities measured by a SpectraMax microplate reader (Molecular Devices).

[2] = Zeta-potential of siRNA-lipid complexes (Malvern Zetasizer); format: physicochemical
Description: as §1

CHO-GFP cells = format: cell-based, Chinese hamster
Description: Cytotoxicity of the carriers was investigated using an MTT colorimetric assay measuring cellular metabolic activity (Invitrogen). The transfection procedure was identical to that presented for the reporter knockdown studies above, except for the fact that 96 well plates were utilized instead, and seeded with 10,000 cells per well. After transfection, the cells were allowed to grow for an additional 48 h. At that point, they were incubated with MTT for 4 h, followed by an additional 4 hour incubation with an SDS-HCl solution to dissolve any insoluble formazan crystals formed by the reduction of MTT by NAD(P)H-dependent enzymes in the cells. The absorbance of each sample was measured at 570 nm using a SpectraMax microplate reader. Cellular viability was calculated by averaging the signal intensities over three replicates and then normalizing the results relative to the negative control data.
The RNAi capabilities of each carrier were investigated by analyzing the silencing of a luciferase (Luc) reporter in HT29 cancer cells after anti-Luc siRNA therapy. To perform this study, we seeded HT29-Luc cells in 12 well plates at a density of 20,000 cells per well. […] Luciferase expression was determined using a Spectra Max luminometer upon the addition of a light-inducing substrate to the collected protein. […]

[3] = tested on: HT29 colon carcinoma cells; assay: Cellular uptake of Alexa Fluor 488-siRNA via flow cytometry; format: cell-based, human; details: HT29, N/P=18, 4 h, 100 nM Alexa Fluor 488-siRNA
Description: Flow cytometry was used to investigate the cellular uptake of our delivery system in HT29 colon carcinoma cells. All carriers in the library were formulated into nanoparticles by condensing Alexa Fluor 488-labeled siRNA at the optimal N/P ratio determined by the above luciferase knockdown studies. Approximately 50,000 cancer cells were seeded in 6-well plates and allowed to grow until 30-50% confluence was reached. The cancer cells were transfected with a 100 nM siRNA dose in serum-free media. After 4 h, the transfection media were aspirated and the cells were washed twice with PBS. The cells were then trypsinized, collected, and fixed with 2% paraformaldehyde in PBS, prior to flow cytometric analysis.

Red blood cells (RBCs) = assay: pH-sensitive hemolytic activity of carrier library; format: cell-based, rat; details: all N/P ratios (5, 10, 15) and pHs (7.4, 6.5, 5.4) tested
Description: Hemolytic activity of each carrier was determined to verify the pH-sensitive membrane disruption capabilities of each carrier in the delivery system. Red blood cells (RBCs) extracted from rats were purchased from Innovative Research Inc. (Novi, Mich.) and diluted 1:50 in PBS solutions of pHs=5.4, 6.5, or 7.4. A total of 100 μL of nanoparticles were created at N/P ratios of 5, 10, 15 and then incubated with 100 μL of diluted RBCs at 37° C. for 2 h. Nanoparticles were formulated so that the final amine concentration for all the samples, after mixing with the RBCs, was 150 μM. Multiple pHs were tested to predict if the nanoparticles could disrupt membranes of the endosomal-lysosomal compartments (pH=5-6), without affecting the integrity of the outer cell membrane prior to endocytosis (pH=7.4). The absorbance of each test sample was measured on a SpectraMax spectrophotometer at a wavelength of 540 nm in order to determine the amount of hemoglobin released from the RBCs, due to membrane destabilization, relative to that achieved by a positive control treatment of 1% (v/v) Triton-X100 surfactant during the 2 hour incubation period.

luciferase reporter = assay: Luciferase reporter silencing in HT29-Luc cells; format: cell-based, human; details: HT29, N/P 18, 72 h post-transfection
Description: Gene silencing efficiency was investigated in the HT29-Luc cell line by analyzing the expression of a luciferase reporter after anti-Luc siRNA therapy. To perform this study, cancer cells were seeded in 12 well plates at a density of 20,000 cells per well. Transfections were conducted in fresh serum-free media with 100 nM of siRNA when the cells were 25% confluent. The cells continued to grow in normal growth media for an additional 48 and 72 h, at which point they were rinsed twice with PBS and lysed for protein collection. The lysis buffer was a component of a Promega Luciferase Assay kit designed for measuring luciferase expression in the cell lysate. Equally important, the lysis buffer was compatible with the BCA protein assay so that we were able to normalize the luciferase expression in our samples with total protein content. For this silencing study, all synthesized carriers were evaluated at N/P ratios of 8, 10, 12, 14, 16, 18, and 20 to determine the best transfection formulation. Relative luciferase expression was determined for each trial using a SpectraMax luminometer upon the addition of a light-inducing luciferin substrate to the collected protein.
The RNAi capabilities of each carrier were investigated by analyzing the silencing of a luciferase (Luc) reporter in HT29 cancer cells after anti-Luc siRNA therapy. To perform this study, we seeded HT29-Luc cells in 12 well plates at a density of 20,000 cells per well. When 25% confluency, the cells were incubated with fresh serum-free transfection media containing nanoparticles at a dose of 100 nM siRNA. After 4 hours, the media was replaced with fresh complete growth media, so that the cells could continue to grow for an additional 48-72 hours, at which point they were lysed for protein collection. The lysis buffer was compatible with the BCA protein assay so that we could normalize luciferase expression in our samples. Negative controls included cells that were treated with 1) particles encapsulating non-specific siRNA, 2) naked anti-Luc siRNA, or 3) plain serum-free media. Luciferase expression was determined using a Spectra Max luminometer upon the addition of a light-inducing substrate to the collected protein. A similar knockdown experiment was also conducted in non-cancerous CHO cells expressing a GFP reporter. Flow cytometry was utilized to assess the silencing efficiency of the ECO and ECL delivery systems in this cell line. Cytotoxicity of the carriers 48 hours post-transfection was also investigated in both cell lines using an MTT colorimetric assay. […] These RNAi silencing levels surpassed those obtained with a Lipofectamine RNAiMax commercial transfection agent.

Structure (SMILES)	Polydispersity of siRNA-lipid complexes ([1]; N/P = 2)	Polydispersity of siRNA-lipid complexes ([1]; N/P = 5)	Polydispersity of siRNA-lipid complexes ([1]; N/P = 8)	Polydispersity of siRNA-lipid complexes ([1]; N/P = 10)	Polydispersity of siRNA-lipid complexes ([1]; N/P = 15)	Nanoparticle diameter as measured by dynamic light scattering ([1]; N/P = 2)	Nanoparticle diameter as measured by dynamic light scattering ([1]; N/P = 5)	Nanoparticle diameter as measured by dynamic light scattering ([1]; N/P = 8)	Nanoparticle diameter as measured by dynamic light scattering ([1]; N/P = 10)	Nanoparticle diameter as measured by dynamic light scattering ([1]; N/P = 15)	Zeta-potential of siRNA-lipid complexes ([2]; pH = 7.4, N/P = 2)	Zeta-potential of siRNA-lipid complexes ([2]; pH = 7.4, N/P = 5)	Zeta-potential of siRNA-lipid complexes ([2]; pH = 7.4, N/P = 8)	Zeta-potential of siRNA-lipid complexes ([2]; pH = 7.4, N/P = 10)	Zeta-potential of siRNA-lipid complexes ([2]; pH = 7.4, N/P = 15)	relative cell viability (MTT) (CHO-GFP cells)	cellular uptake, mean fluorescence intensity (MFI) [3]	hemolytic activity relative to Triton X-100 (Red blood cells (RBCs))	luciferase knockdown (transfection efficiency) (luciferase reporter)
CCCCC/C=C\C/C=C\CCCCCCCC(=O)NC(CS)C(=O)NC(Cc1cnc[nH]1)C(=O)NCCNC(=O)CCN(CCN)CCC(=O)NCCNC(=O)C(Cc1cnc[nH]1)NC(=O)C(CS)NC(=O)CCCCCCC/C=C\C/C=C\CCCCC (stereo not drawn) [EHCLn]	0.299	0.197	0.167	0.112	0.127	403 ± 35 nm	379 ± 28 nm	227 ± 20 nm	130 ± 14 nm	60 ± 11 nm	−23.73 ± 2.26 mV	−17.04 ± 1.32 mV	0.49 ± 1.17 mV	11.34 ± 1.67 mV	24.92 ± 2.89 mV	–	–	–	–
CCCCC/C=C\C/C=C\CCCCCCCC(=O)NC(CS)C(=O)NC(Cc1cnc[nH]1)C(=O)NCCNC(=O)CCN(CCCNCCCCNCCCN)CCC(=O)NCCNC(=O)C(Cc1cnc[nH]1)NC(=O)C(CS)NC(=O)CCCCCCC/C=C\C/C=C\CCCCC (stereo not drawn) [SHCLn]	0.246	0.183	0.174	0.114	0.163	559 ± 38 nm	223 ± 23 nm	119 ± 13 nm	132 ± 15 nm	75 ± 10 nm	−32.09 ± 1.65 mV	24.02 ± 1.07 mV	26.35 ± 1.40 mV	25.59 ± 2.22 mV	23.80 ± 2.95 mV	83.3±4.22%	4414±413	–	–
CCCCCCCC/C=C\CCCCCCCC(=O)NC(CS)C(=O)NC(Cc1cnc[nH]1)C(=O)NCCNC(=O)CCN(CCCNCCCCNCCCN)CCC(=O)NCCNC(=O)C(Cc1cnc[nH]1)NC(=O)C(CS)NC(=O)CCCCCCC/C=C\CCCCCCCC (stereo not drawn) [SHCO]	0.238	0.192	0.189	0.154	0.124	441 ± 32 nm	238 ± 27 nm	139 ± 17 nm	151 ± 16 nm	46 ± 8 nm	−32.09 ± 1.65 mV	−18.5 ± 2.43 mV	18.32 ± 1.45 mV	21.76 ± 2.31 mV	23.94 ± 1.70 mV	–	3580±244	–	–
CCCCCCCC/C=C\CCCCCCCC(=O)NC(CS)C(=O)NCCNC(=O)CCN(CCCNCCCCNCCCN)CCC(=O)NCCNC(=O)C(CS)NC(=O)CCCCCCC/C=C\CCCCCCCC (stereo not drawn) [SCO]	0.339	0.236	0.19	0.158	0.176	407 ± 35 nm	138 ± 28 nm	63 ± 12 nm	65 ± 11 nm	53 ± 9 nm	−29.49 ± 1.33 mV	26.60 ± 2.76 mV	23.16 ± 1.88 mV	23.29 ± 3.11 mV	25.16 ± 3.75 mV	–	–	greatest hemolytic activity	–
CCCCCCCC/C=C\CCCCCCCC(=O)NC(CS)C(=O)NC(Cc1cnc[nH]1)C(=O)NCCNC(=O)CCN(CCN)CCC(=O)NCCNC(=O)C(Cc1cnc[nH]1)NC(=O)C(CS)NC(=O)CCCCCCC/C=C\CCCCCCCC (stereo not drawn) [EHCO]	0.276	0.195	0.165	0.122	0.161	480 ± 30 nm	427 ± 25 nm	380 ± 18 nm	141 ± 15 nm	51 ± 10 nm	−23.14 ± 2.47 mV	−14.09 ± 1.88 mV	5.54 ± 1.37 mV	18.80 ± 1.02 mV	22.68 ± 2.08 mV	–	1957±208	–	46.4±5.8%
